{"source": "patent US6949553B2", "about": "“Aliphatic compounds, their synthesis method, and utilization of the same” (Maruha Corporation, priority 2001, dated 2005)", "key": {"[1]": {"test_system": "neutrophils and vascular endothelial cells", "assay": "Pseudo-blood vessel in vitro inflammation model (TNFα, neutrophil migration through endothelial cell layer)", "assay_type": "cell-based, bovine", "settings": "30, 3 or 0.3 μM, TNFα 50 ng/ml", "experimental": "A layer of bovine endothelial cells was adhered to the bottom surface of the membrane, and cultured for 80 minutes at 37° C. in 5% CO2. Then, a suspension of fluorescence-labeled neutrophils was added to the upper chamber of the transwell. Simultaneously, TNFα was suspended in the cell suspension in the upper chamber to an end concentration of 50, 25 or 17 ng/ml.\nThat is, in the above model, the phenomena that neutrophils pass from the upper chamber through the vascular endothelial cell layer into the lower chamber, and neutrophils adhere to the endothelial cell layer mimic a state where in response to TNFα within the blood vessel, neutrophils migrate from within the blood vessel to the site of inflammation.\nIn the same manner as described above, the number of neutrophils passing from the upper chamber through the vascular endothelial cell layer into the lower chamber, and the number of neutrophils adhering to the endothelial cell layer were measured. Based on these numbers, the neutrophil migration rate (%) was calculated. The neutrophil migration rate was expressed as the relative value (%) of the number of the migrating neutrophils in the drug treatment group with respect to the number of the migrating neutrophils in the negative control group (physiological saline)."}, "[2]": {"test_system": "rat lauric acid-induced leg necrosis", "assay": "Rat lauric acid-induced peripheral circulatory disorder model (leg necrosis score)", "assay_type": "in vivo", "settings": "for leg necrosis score (in words): iv once daily 14 days, 10, 30 or 100 μg/kg; for alleviation of the disorder (in words): prior administration", "method": "A rat lauric acid-induced peripheral circulatory disorder model, which is widely used as a peripheral circulatory disorder model, was used to investigate the effect of the compounds of the present invention on an in vivo pathophysiological model of circulatory disorder.\nLauric acid (1.5 mg/animal) was administered into the rat femoral artery to induce leg necrosis.\nA solvent (physiological saline) was administered as a control.\nThe progress of foot/leg lesions was observed 3, 7, 10 and 14 days after lauric acid administration, and evaluated by the following leg necrosis score. The score was given to each of the digits, and the sum of the scores of the respective digits was taken as a lesion index. If the disorder extended to the plantar portion, 5 points were further added.\nScore 1: Blackening is limited to the tiptoe.\nScore 2: Blackening extends to the digital portion.\nScore 3: Necrosis of the digit.\nScore 4: Loss of the digit.\nA solvent (physiological saline) was similarly administered as a control.\nThe progress of foot/leg lesions was observed 3, 7, 10 and 14 days after lauric acid administration, and evaluated by the above leg necrosis score.\nA test was conducted in the same manner as in (2) above."}, "human platelets [3]": {"test_system": "human platelets", "assay": "Human in vitro platelet aggregation", "assay_type": "cell-based", "settings": "read-out: 50% inhibition point, IC50, against human in vitro platelet aggregation", "method": "From each of the large brachial veins of human volunteers, 10 ml of blood per person was drawn using an 18G syringe needle. The blood was gently dropped into a 15 ml Falcon tube containing 1 ml of 3.8% sodium citrate (Citral, Yamanouchi Pharmaceutical). A stopper for the tube was closed, and slowly inverted for mixing. Then, the blood was centrifuged at 900 rpm for 10 minutes at room temperature to separate the supernatant (platelet rich fraction, platelet rich plasma, PRP). The residue was further centrifuged for 15 minutes at 2,500 rpm to obtain the supernatant (platelet poor fraction, platelet poor plasma, PPP). The platelet density of PRP was measured with a blood cell counter (Sysmex), and diluted with PPP to adjust the platelet density to 300,000 platelets/μl.\nPreparation of aggregation inducers was performed in the same manner as described earlier.\nFor each experiment, the doses of the inducers were so set as to obtain best evaluation of the action of the study substance. That is, the concentration of each inducer at which aggregation would clearly develop in the presence of a negative control (physiological saline) but would not excessive was set for each experiment.\nIf aggregation is induced by high concentration ADP or high concentration epinephrine, on the other hand, primary aggregation takes place, and then secondary aggregation proceeds again, under the action, as a trigger, of alpha granules (PDGF, serotonin, ADP, etc.) liberated from activated platelets. In the present study, the effect of the study substance on secondary aggregation due to ADP or epinephrine was also investigated.\nSerotonin, when used alone, minimally causes platelet aggregation. Thus, a combination of serotonin and collagen, or a combination of serotonin and ADP was used as the inducer. […] For example, if serotonin used alone induced aggregation at a dose of 1 mM, but induced little aggregation at a dose of 0.5 mM, and if ADP alone induced aggregation at a dose of 0.25 mM, but induced no aggregation at a dose of 0.11 mM, then the doses, 0.25 mM serotonin+0.05 mM ADP, were set.\nCompound 2 was used as the study substance, and the preparation of the inducers was performed in the same manner as described earlier.\nThe measurement of the transmittance was carried out in the same manner as described earlier."}, "platelets": {"test_system": "platelets", "assay": "In vitro platelet aggregation by various inducers, guinea pig platelets", "assay_type": "cell-based", "settings": "Cavia porcellus", "from_the_text": "Next, the suppression of platelet aggregation by the compounds of the present invention was studied in the same manner as described above with the use of not only collagen, but also arachidonic acid, ADP, thrombin, serotonin, epinephrine and U46619 (pseudo-thromboxane A2 substance) as inducers.\nAs platelets, platelets prepared from rats and guinea pigs as well as rabbits were also used.\nCollagen and ADP were purchased from MCM, and used in accordance with the method of preparation described in the manuals attached to the purchased products. Serotonin, epinephrine and thrombin were purchased from Sigma, and used as solutions in physiological saline for injection (Otsuka Pharmaceutical Factory). Arachidonic acid was purchased from Cayman, and dispersed in physiological saline for injection (Otsuka Pharmaceutical Factory) with the use of an immersion type ultrasonic oscillator (US150, NIPPON SEIKI, tip end diameter ca. 3.5 mm). U46619 (pseudo-thromboxane substance) was purchased from FUNAKOSHI, and dissolved in physiological saline for injection (Otsuka Pharmaceutical Factory) when used.\nCollagen (0.1 to 1 μg/ml), arachidonic acid (1 mM), ADP (1 μM), thrombin (1 U/ml), serotonin (100 μM), epinephrine (100 to 200 μM), and U46619 (3 μM) were used.\nIndomethacin was used as a positive control for measuring the suppression of platelet aggregation induced by collagen."}, "[4]": {"test_system": "rat middle cerebral artery obstruction", "assay": "Photosensitization-induced rat middle cerebral artery obstruction model", "assay_type": "in vivo", "settings": "1 mg/kg intravenous after laser irradiation, evaluated 24 hours after", "method": "A photosensitization-induced rat middle cerebral artery obstruction model, widely used as a cerebral infarction acute phase/chronic phase model, was used to investigate the effect of the compounds of the present invention on an in vivo circulatory disorder pathophysiological model.\nAfter rats were intravenously injected with a rose bengal dye (20 mg/kg), the middle cerebral artery was irradiated with green laser light (wavelength 540 nm) for 10 minutes to induce arterial infarction due to active oxygen species. After completion of irradiation with laser light, Compound 2 was intravenously administered.\nA solvent (physiological saline) was intravenously administered as a control.\nThe progress of cerebral infarction was observed 24 hours after laser light irradiation. A transverse section (1 mm in thickness) of the brain exenterated was prepared, and soaked in triphenyltetrazolium to stain living tissue red. An infarct was white, and was clearly distinguished from the living tissue. Thus, the area of the infarct was measured, and the infarct rate (the proportion of the area of the infarct to the transverse section of the brain) was calculated for use in evaluation."}, "human platelets [5]": {"test_system": "human platelets", "assay": "Human in vitro platelet aggregation", "assay_type": "cell-based", "settings": "inducer Serotonin + ADP, (0.25˜1) μM + (0.05˜0.25) μM, read-out: 50% inhibition point, IC50, against human in vitro platelet aggregation"}}, "note": "Read-outs that look alike come from different tables or passages of the source."}
{"smiles": "CC/C=C\\C/C=C\\C/C=C\\C/C=C\\C/C=C\\C/C=C\\CCC(=O)NCCC1CCCN1C", "note": "(racemic) [Compound 2, (4Z,7Z,10Z,13Z,16Z,19Z)-N-[2-(1-methylpyrrolidin-2-yl)ethyl]docosahexaenoamide]", "values": [{"measurement": "neutrophil passage through vascular endothelial cell layer (in words)", "setting": "[1]", "result": "suppressed neutrophil passage dose-dependently"}, {"measurement": "leg necrosis score (in words)", "setting": "[2]; administration after induction: first dose 6 hours after lauric acid", "result": "improve the leg necrosis score dose-dependently"}, {"measurement": "leg necrosis score (in words)", "setting": "[2]; administration started 1 hour before lauric acid", "result": "improve the leg necrosis score dose-dependently"}, {"measurement": "alleviation of the disorder (in words)", "setting": "[2]; dose of 10 μg/kg", "result": "tended to alleviate the disorder"}, {"measurement": "alleviation of the disorder (in words)", "setting": "[2]; doses of 30 and 100 μg/kg", "result": "alleviated the disorder significantly"}, {"measurement": "IC50", "setting": "human platelets [3]; inducer ADP (0.5˜1) μM, primary aggregation", "result": 30, "unit": "µM"}, {"measurement": "IC50", "setting": "human platelets [3]; inducer ADP (1˜2.5) μM, secondary aggregation", "result": 0.57, "unit": "µM"}, {"measurement": "IC50", "setting": "human platelets [3]; inducer Arachidonic acid (1˜2) μM", "result": 80, "unit": "µM"}, {"measurement": "IC50", "setting": "human platelets [3]; inducer Collagen (0.075˜0.25) μg/ml", "result": 13, "unit": "µM"}, {"measurement": "IC50", "setting": "human platelets [3]; inducer Epinephrine 1 μM, primary aggregation", "result": 33, "unit": "µM"}, {"measurement": "IC50", "setting": "human platelets [3]; inducer Epinephrine (1˜3) μM, secondary aggregation", "result": 2.7, "unit": "µM"}, {"measurement": "IC50", "setting": "human platelets [3]; inducer Serotonin + Collagen, (0.25˜0.5) μM + (0.05˜0.2) μg/ml", "result": 15, "unit": "µM"}, {"measurement": "IC50", "setting": "human platelets [3]; inducer Thrombin (0.2˜0.25) U/ml", "result": 57, "unit": "µM"}, {"measurement": "IC50", "setting": "human platelets [3]; inducer U46619 (pseudo-thromboxane A2) (5˜10) μM", "result": 53, "unit": "µM"}, {"measurement": "IC50", "setting": "platelets; read-out: 50% aggregation inhibition point, collagen-induced aggregation, guinea pig platelets", "result": "~9", "unit": "µM"}, {"measurement": "IC50", "setting": "platelets; read-out: 50% inhibition point, IC50, for in vitro platelet aggregation, inducer ADP (1 μM), guinea pig platelets", "result": "65 ± 19", "unit": "µM"}, {"measurement": "IC50", "setting": "platelets; read-out: 50% inhibition point, IC50, for in vitro platelet aggregation, inducer collagen (0.1 to 1 μg/ml), guinea pig platelets", "result": "9 ± 6", "unit": "µM"}, {"measurement": "IC50", "setting": "platelets; read-out: 50% inhibition point, IC50, for in vitro platelet aggregation, inducer thrombin (1 U/ml), guinea pig platelets", "result": "> 100", "unit": "µM"}, {"measurement": "cerebral infarction, infarct rate (in words)", "setting": "[4]", "result": "ameliorate cerebral infarction"}, {"measurement": "IC50", "setting": "human platelets [5]", "result": 3, "unit": "µM"}]}
